Assay results published in PubChem BioAssay (NCI).
Where “and” joins values, the source holds several entries; their conditions need not be identical. Equal entries are not always repeated.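 Exposure lasted 48 hours, with cells grown in 96-well plates and compounds tested at five concentrations. Abbreviation: GI50, concentration required for 50% inhibition of growth. The concentration for full growth arrest is given as TGI.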

Columns and labels:
Experiment in all cases: growth of human tumour cells (NCI), 48 h
NCI-H460 lung = test system: NCI-H460 lung
DMS 114 small cell lung = test system: DMS 114 small cell lung
CCRF-CEM leukemia = test system: CCRF-CEM leukemia
OVCAR-4 ovarian = test system: OVCAR-4 ovarian
UACC-62 melanoma = test system: UACC-62 melanoma
HS 578T breast = test system: HS 578T breast
HOP-62 NSCLC = test system: HOP-62 NSCLC
HCC-2998 colon = test system: HCC-2998 colon
SNB-75 CNS = test system: SNB-75 CNS
XF 498 CNS = test system: XF 498 CNS
SW-620 colon = test system: SW-620 colon
A549 NSCLC = test system: A549 NSCLC
SNB-19 CNS = test system: SNB-19 CNS
PC-3 prostate = test system: PC-3 prostate
COLO 205 colon = test system: COLO 205 colon
UO-31 renal = test system: UO-31 renal
BT-549 breast = test system: BT-549 breast
LOX IMVI melanoma = test system: LOX IMVI melanoma
HL-60(TB) leukemia = test system: HL-60(TB) leukemia
RXF-631 renal = test system: RXF-631 renal
ACHN renal = test system: ACHN renal
NCI-H522 lung = test system: NCI-H522 lung
SF-295 CNS = test system: SF-295 CNS
NCI-H226 lung = test system: NCI-H226 lung
NCI-H23 lung = test system: NCI-H23 lung
HCT-116 colon = test system: HCT-116 colon
A498 renal = test system: A498 renal
HCT-15 colon = test system: HCT-15 colon
TK-10 renal = test system: TK-10 renal
DU-145 prostate = test system: DU-145 prostate
M19-MEL melanoma = test system: M19-MEL melanoma
MDA-MB-435 = test system: MDA-MB-435
NCI/ADR-RES ovarian = test system: NCI/ADR-RES ovarian
786-0 renal = test system: 786-0 renal
K-562 leukemia = test system: K-562 leukemia
DMS 273 small cell lung = test system: DMS 273 small cell lung
SNB-78 CNS = test system: SNB-78 CNS
IGROV1 ovarian = test system: IGROV1 ovarian
UACC-257 melanoma = test system: UACC-257 melanoma
SR leukemia = test system: SR leukemia
SK-MEL-2 melanoma = test system: SK-MEL-2 melanoma
T-47D breast = test system: T-47D breast
MCF7 breast = test system: MCF7 breast
LXFL 529 NSCLC = test system: LXFL 529 NSCLC
MDA-MB-231 breast = test system: MDA-MB-231 breast
SK-MEL-5 melanoma = test system: SK-MEL-5 melanoma
KM12 colon = test system: KM12 colon
KM20L2 colon = test system: KM20L2 colon
MOLT-4 leukemia = test system: MOLT-4 leukemia
SF-539 CNS = test system: SF-539 CNS
SK-MEL-28 melanoma = test system: SK-MEL-28 melanoma
U251 CNS = test system: U251 CNS
RPMI-8226 leukemia = test system: RPMI-8226 leukemia
SN12C renal = test system: SN12C renal
DLD-1 colon = test system: DLD-1 colon
OVCAR-8 ovarian = test system: OVCAR-8 ovarian
HOP-18 NSCLC = test system: HOP-18 NSCLC
HOP-92 NSCLC = test system: HOP-92 NSCLC
CAKI-1 renal = test system: CAKI-1 renal

## CC(C)(O)/C=C/C(=O)[C@](C)(O)[C@H]1[C@H](O)C[C@@]2(C)[C@@H]3CC=C4[C@@H](C=C(O)C(=O)C4(C)C)[C@]3(C)C(=O)C[C@]12C
NCI-H460 lung
  TGI: > 10000 nM and 1620 nM
DMS 114 small cell lung
  GI50: 2000 nM
  TGI: 5210 nM and 9710 nM
CCRF-CEM leukemia
  GI50: 253 nM and 709 nM
  TGI: 2020 nM and 4520 nM
OVCAR-4 ovarian
  GI50: 343 nM
  TGI: 3210 nM and 4570 nM and 11500 nM
UACC-62 melanoma
  TGI: 4970 nM and 8940 nM and 1760 nM
HS 578T breast
  TGI: 7660 nM
HOP-62 NSCLC
  GI50: 442 nM
HCC-2998 colon
  GI50: 319 nM
SNB-75 CNS
  GI50: 72.1 nM and 193 nM
XF 498 CNS
  TGI: 622 nM and 698 nM
SW-620 colon
  TGI: > 4830 nM and 6870 nM and 1640 nM
A549 NSCLC
  TGI: > 5820 nM and 8600 nM and 10300 nM
SNB-19 CNS
  GI50: 407 nM
  TGI: 1320 nM and 5450 nM and 1190 nM
PC-3 prostate
  TGI: 5560 nM
COLO 205 colon
  GI50: 337 nM
  TGI: > 10000 nM and 7920 nM and 1350 nM
UO-31 renal
  GI50: 195 nM
BT-549 breast
  TGI: 36.2 nM
LOX IMVI melanoma
  GI50: 574 nM
  TGI: 1300 nM and 3180 nM
HL-60(TB) leukemia
  GI50: 265 nM and 1100 nM
  TGI: 935 nM and 2540 nM
RXF-631 renal
  GI50: 750 nM
  TGI: > 4220 nM and 3610 nM
ACHN renal
  GI50: 268 nM
NCI-H522 lung
  GI50: 278 nM
SF-295 CNS
  GI50: 275 nM
NCI-H226 lung
  GI50: 252 nM
NCI-H23 lung
  TGI: > 7190 nM and 1150 nM
HCT-116 colon
  TGI: 3630 nM and 7310 nM and 1150 nM
A498 renal
  GI50: 189 nM and 522 nM
  TGI: 392 nM and 1090 nM
HCT-15 colon
  GI50: 273 nM
  TGI: > 8330 nM and 3820 nM
TK-10 renal
  GI50: 360 nM and 1680 nM
  TGI: 770 nM and 3230 nM
DU-145 prostate
  TGI: 1900 nM
M19-MEL melanoma
  GI50: 929 nM and 2160 nM
  TGI: > 10000 nM
MDA-MB-435
  TGI: 885 nM
NCI/ADR-RES ovarian
  TGI: 17100 nM
786-0 renal
  GI50: 210 nM
K-562 leukemia
  TGI: > 9250 nM and 11200 nM
DMS 273 small cell lung
  GI50: 282 nM
  TGI: 1260 nM and 4290 nM
SNB-78 CNS
  GI50: 737 nM
  TGI: 1610 nM and 5530 nM
IGROV1 ovarian
  GI50: 270 nM
  TGI: 688 nM and 4450 nM and 4600 nM
UACC-257 melanoma
  TGI: 1840 nM and 3940 nM and 1620 nM
SR leukemia
  GI50: 1200 nM and 330 nM
  TGI: > 4600 nM and 9080 nM and 14500 nM
SK-MEL-2 melanoma
  TGI: 597 nM and 1320 nM and 1160 nM
T-47D breast
  TGI: 4270 nM
MCF7 breast
  TGI: 10500 nM
LXFL 529 NSCLC
  GI50: 712 nM
  TGI: 1550 nM and 6670 nM
MDA-MB-231 breast
  TGI: 92.7 nM
SK-MEL-5 melanoma
  GI50: 310 nM
  TGI: 1230 nM and 3620 nM and 1270 nM
KM12 colon
  TGI: > 10000 nM and 2330 nM
KM20L2 colon
  GI50: 660 nM
  TGI: > 5600 nM
MOLT-4 leukemia
  TGI: > 7730 nM and 24600 nM
SF-539 CNS
  GI50: 253 nM
SK-MEL-28 melanoma
  TGI: 581 nM and 1690 nM and 244 nM
U251 CNS
  GI50: 229 nM
RPMI-8226 leukemia
  TGI: 2160 nM and 3570 nM and 11000 nM
SN12C renal
  GI50: 431 nM
DLD-1 colon
  GI50: 291 nM and 721 nM
  TGI: > 6130 nM and 6580 nM
OVCAR-8 ovarian
  TGI: > 10000 nM and 8100 nM
HOP-18 NSCLC
  GI50: 276 nM and 602 nM
  TGI: 1330 nM and 1910 nM
HOP-92 NSCLC
  GI50: 255 nM
CAKI-1 renal
  GI50: 211 nM and 436 nM
  TGI: 473 nM and 813 nM
